Laboratory results published in article PMC4625925, “One amino acid makes the difference: the formation of ent-kaurene and 16α-hydroxy-ent-kaurane by diterpene synthases in poplar” (BMC Plant Biology, 2015).

Assays:
PtTPS17 = target: T1, PtTPS17 (Populus trichocarpa, UniProt A0A0S1TFB5); experiment: GC-MS product analysis; format: biochemical; settings: 50 µM GGPP, 5 mM MgCl2, pH 7.5, 25 °C, 2 h; product ent-CPP detected as copalol
T1 construct: N-terminally truncated (delta 65 aa, transit peptide removed), pET200 (N-terminal His tag), E. coli BL21(DE3), partially purified
T1 sequence (A0A0S1TFB5 66-795): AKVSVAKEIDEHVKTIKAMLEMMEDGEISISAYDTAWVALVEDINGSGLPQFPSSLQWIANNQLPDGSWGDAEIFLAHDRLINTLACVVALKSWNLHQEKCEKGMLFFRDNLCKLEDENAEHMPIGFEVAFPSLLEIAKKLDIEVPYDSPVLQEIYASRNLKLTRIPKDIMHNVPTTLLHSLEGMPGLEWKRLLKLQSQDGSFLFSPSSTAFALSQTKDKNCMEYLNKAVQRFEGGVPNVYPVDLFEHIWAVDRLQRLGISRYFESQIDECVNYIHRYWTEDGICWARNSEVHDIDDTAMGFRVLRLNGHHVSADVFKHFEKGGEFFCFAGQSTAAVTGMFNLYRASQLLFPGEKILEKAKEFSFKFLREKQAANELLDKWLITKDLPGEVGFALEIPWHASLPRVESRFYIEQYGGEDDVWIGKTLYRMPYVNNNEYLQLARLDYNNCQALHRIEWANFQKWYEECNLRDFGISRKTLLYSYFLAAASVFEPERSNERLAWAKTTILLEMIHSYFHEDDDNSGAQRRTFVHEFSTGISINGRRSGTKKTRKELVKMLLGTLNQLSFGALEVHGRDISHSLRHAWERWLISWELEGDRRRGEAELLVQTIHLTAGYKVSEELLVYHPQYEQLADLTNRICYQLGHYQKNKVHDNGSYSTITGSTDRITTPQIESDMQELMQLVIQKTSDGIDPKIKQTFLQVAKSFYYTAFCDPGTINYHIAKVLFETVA

PtTPS19 = target: T2, PtTPS19 (Populus trichocarpa, UniProt A0A0S1TJ32); experiment: GC-MS product analysis, ent-CPP made in situ; format: biochemical; settings: ent-CPP from GGPP by coupled PtTPS17; 5 mM MgCl2, pH 7.5, 25 °C, 2 h
T2 construct: N-terminally truncated (delta 42 aa, transit peptide removed), pET200 (N-terminal His tag), E. coli BL21(DE3), partially purified
T2 sequence (A0A0S1TJ32 entry or part of it): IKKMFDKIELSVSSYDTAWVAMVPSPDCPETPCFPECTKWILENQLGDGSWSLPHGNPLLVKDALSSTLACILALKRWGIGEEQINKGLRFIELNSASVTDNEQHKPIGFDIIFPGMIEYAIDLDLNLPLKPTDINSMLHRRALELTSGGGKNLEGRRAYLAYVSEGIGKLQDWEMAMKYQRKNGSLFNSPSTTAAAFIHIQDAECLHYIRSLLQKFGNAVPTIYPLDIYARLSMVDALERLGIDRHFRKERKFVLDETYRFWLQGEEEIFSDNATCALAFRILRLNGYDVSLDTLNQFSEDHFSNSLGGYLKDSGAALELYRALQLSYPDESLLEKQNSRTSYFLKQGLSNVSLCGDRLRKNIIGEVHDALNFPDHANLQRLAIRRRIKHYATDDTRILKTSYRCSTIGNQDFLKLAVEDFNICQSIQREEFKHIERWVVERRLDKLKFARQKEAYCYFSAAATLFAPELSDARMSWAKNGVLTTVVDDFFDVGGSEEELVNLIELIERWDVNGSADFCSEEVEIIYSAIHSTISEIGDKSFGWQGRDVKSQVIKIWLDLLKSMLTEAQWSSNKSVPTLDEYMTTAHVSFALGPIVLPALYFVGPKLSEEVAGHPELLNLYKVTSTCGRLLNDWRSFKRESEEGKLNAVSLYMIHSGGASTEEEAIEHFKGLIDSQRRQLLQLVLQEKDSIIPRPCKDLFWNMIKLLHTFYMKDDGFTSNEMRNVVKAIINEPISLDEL

SMILES	GC-MS product analysis (PtTPS17)	GC-MS product analysis, ent-CPP made in situ (PtTPS19)
CC(C)=CCC/C(C)=C/CC/C(C)=C/CC/C(C)=C/COP(=O)(O)OP(=O)(O)O [(E,E,E)-GGPP]	When PtTPS17 was incubated with GGPP, copalol was detected	–
C=C1CC[C@@H]2C(C)(C)CCC[C@@]2(C)[C@@H]1CC/C(C)=C/COP(=O)(O)OP(=O)(O)O [ent-CPP]	–	PtTPS19 converted ent-CPP into ent-kaurene
